The values that follow come from patent US10800784B2, “Nitrogen-containing heterocyclic amide compound and pharmaceutical use thereof” (Japan Tobacco Inc., priority 2018, dated 2020).

For one assay, the target named is human PDHK1 (hPDHK1) (Homo sapiens (Human), UniProt Q15118). Kind of assay: Inhibitory action of PDHK1 activity in vitro (residual PDH activity after PDHK reaction). The note with it: for IC50: PDH/hPDHK1 complex solution, PDHK reaction at room temperature for 45 min, NADH absorbance at 340 nm, read-out: hPDK1 IC50; for inhibition at 0.003 µM: at 3 nmol/L, shown when IC50 value could not be calculated, read-out: hPDHK1 inhibitory rate at the lowest concentration of the test compound. The assay is classed as biochemical. Here is the method:
(§1) The inhibitory action of PDHK activity was assessed indirectly by measuring the residual PDH activity after PDHK reaction in the presence of a test compound.
(Inhibitory Action of PDHK1 Activity)
In the case of human PDHK1 (hPDHK1, NCBI Reference Database Accession number NM_002610.3), a 1.3 kbp fragment encoding this protein was isolated from human liver cDNA by polymerase chain reaction (PCR). Modified hPDHK1 cDNA wherein FLAG-Tag sequence was added to the N terminus was prepared by PCR and ligated to the NdeI/EcoRI site of pET-17b vector (Merck MGaA, model number 69663-3). The recombinant construct was transformed into Escherichia coli DH5a (TOYOBO, model number DNA-903). The recombinant clones were identified, and plasmid DNA was isolated and subjected to the DNA sequence analysis. One clone which had the expected nucleic acid sequence was selected for expression work.
For expression of hPDHK1 activity, Escherichia coli strain BL21(DE3) cells (Merck KGaA, model number 69450-4) were transformed with the pET17b vector containing modified hPDHK1 cDNA. The Escherichia coli were grown to an optical density 0.6 ([…]) at 30° C. Protein expression was induced by the addition of 500 μmol/L isopropyl-β-thiogalactopyranoside. The Escherichia coli were cultured at 20° C. for 17-18 hr and harvested by centrifugation.
The harvested Escherichia coli was resuspended in a suspension buffer (20 mmol/L N-(2-hydroxyethyl)piperazine-N′-2-ethanesulfonic acid-sodium hydroxide (HEPES-NaOH), 500 mmol/L sodium chloride, 1% ethylene glycol, and 0.1% polyoxyethylene-polyoxypropylene block copolymer (Pluronic F-68), complete, EDTA-free (pH 8.0)) and disrupted by a microfluidizer M-110H (MIZUHO INDUSTRIAL CO., LTD.) or ultrasonication. The precipitate was removed by centrifugation and the supernatant was added to DDDDK-tagged Protein PURIFICATION GEL (MBL, model number 3329). DDDDK-tagged Protein PURIFICATION GEL was washed with a washing buffer (20 mmol/L HEPES-NaOH, 500 mmol/L sodium chloride, 1% ethylene glycol, 0.1% pluronic F-68 (pH 8.0)) and the bound protein was eluted with elution buffer 1 (20 mmol/L HEPES-NaOH, 100 μg/mL peptide (amino acid sequence DYKDDDDK) (SEQ ID NO: 1), 500 mmol/L sodium chloride, 1% ethylene glycol, 0.1% pluronic F-68 (pH 8.0)).
The eluted fractions containing FLAG-Tagged protein were pooled, concentrated by an ultrafiltration method, added to a gel filtration column (HiLoad 26/60 Superdex 200 (GE Healthcare, model number 17-1070-01)), and eluted with elution buffer 2 (20 mmol/L HEPES-NaOH, 150 mmol/L sodium chloride, 0.5 mmol/L ethylenediaminetetraacetic acid (EDTA), 1% ethylene glycol, 0.1% pluronic F-68 (pH 8.0)). The eluted fractions were pooled and preserved at −80° C.
0.025 U/mL PDH (porcine heart PDH complex, Sigma P7032) and 0.5 μg/mL hPDHK1 were mixed in an assay buffer (50 mmol/L 3-morpholinopropanesulfonic acid (pH 7.0), 20 mmol/L dipotassium hydrogen phosphate, 60 mmol/L potassium chloride, 2 mmol/L magnesium chloride, 0.4 mmol/L EDTA, 0.2% poloxamer, 2 mmol/L dithiothreitol), and the mixture was incubated at 4° C. overnight to obtain a PDH/hPDHK1 complex solution. In the assay buffer, 0.025 U/mL PDH was mixed and incubated at 4° C. overnight to prepare a PDH solution.
The test compounds were diluted with dimethyl sulfoxide (DMSO). To measure an inhibitory action of the test compound on the PDHK activity in the PDH/hPDHK1 complex solution, PDH/hPDHK1 complex solution (20 μL), test compound (1.5 μL) and 0.353 μmol/L ATP (diluted with assay buffer) (8.5 μL) were added to a 384 well microplate (Greiner Bio-One 781801) and PDHK reaction was performed at room temperature for 45 min (test compound well). DMSO (1.5 μL) was added to control wells instead of test compound. In addition, DMSO (1.5 μL) was added to blank wells instead of the test compound, and PDH solution was added instead of the PDH/hPDHK1 complex solution. […]

In another assay the target is human PDHK2 (hPDHK2) (Homo sapiens (Human), UniProt Q15119). Kind of assay: Inhibitory action of PDHK2 activity in vitro (residual PDH activity after PDHK reaction). The assay is classed as biochemical. The note with it: for IC50: PDH/hPDHK2 complex solution, PDHK reaction at room temperature for 45 min, NADH absorbance at 340 nm, read-out: kPDK2 IC50. Here is the method:
as §1
(Inhibitory Action of PDHK2 Activity)
In the case of human PDHK2 (hPDHK2, NCBI Reference Database Accession number NM_002611.4), modified hPDHK2 cDNA wherein FLAG-Tag sequence was added to the N terminus of hPDHK2 cDNA clone (pReceiver-M01/PDK2-GeneCopoeia) as the base was prepared by PCR and ligated to the NdeI/EcoRI site of pET-17b vector. The recombinant construct was transformed into Escherichia coli DH5a. The recombinant clones were identified, and plasmid DNA was isolated and subjected to the DNA sequence analysis. One clone which had the expected nucleic acid sequence was selected for expression work.
For expression of hPDHK2 activity, Escherichia coli strain BL21(DE3) cells were transformed with the pET17b vector containing modified hPDHK2 cDNA. The Escherichia coli were grown to an optical density 0.6 ([…]) at 30° C. Protein expression was induced by the addition of 500 μmol/L isopropyl-β-thiogalactopyranoside. The Escherichia coli were cultured at 20° C. for 17-18 hr and harvested by centrifugation. The harvested Escherichia coli was resuspended in a suspension buffer (20 mmol/L HEPES-NaOH, 500 mmol/L sodium chloride, 1% ethylene glycol, 0.1% pluronic F-68 (pH 8.0), cOmplete, EDTA-free (pH 8.0)), and disrupted by a microfluidizer. The precipitate was removed by centrifugation and the supernatant was added to DDDDK-tagged Protein PURIFICATION GEL. DDDDK-tagged Protein PURIFICATION GEL was washed with a washing buffer (20 mmol/L HEPES-NaOH, 500 mmol/L sodium chloride, 1% ethylene glycol, 0.1% pluronic F-68 (pH 8.0)) and the bound protein was eluted with elution buffer 1 (20 mmol/L HEPES-NaOH, 100 μg/mL peptide (amino acid sequence DYKDDDDK) (SEQ ID NO: 1), 500 mmol/L sodium chloride, 1% ethylene glycol, 0.1% pluronic F-68 (pH 8.0)). The eluted fractions containing FLAG-Tagged protein were pooled, concentrated by an ultrafiltration method, added to a gel filtration column (HiLoad 26/60 Superdex 200), and eluted with elution buffer 2 (20 mmol/L HEPES-NaOH, 150 mmol/L sodium chloride, 0.5 mmol/L ethylenediaminetetraacetic acid (EDTA), 1% ethylene glycol, 0.1% pluronic F-68 (pH 8.0)). The eluted fractions were pooled and preserved at −80° C.
0.025 U/mL PDH and 0.5 μg/mL hPDHK2 were mixed in an assay buffer (50 mmol/L 3-morpholinopropanesulfonic acid (pH 7.0), 20 mmol/L dipotassium hydrogen phosphate, 60 mmol/L potassium chloride, 2 mmol/L magnesium chloride, 0.4 mmol/L EDTA, 0.2% poloxamer, 2 mmol/L dithiothreitol), and the mixture was incubated at 4° C. overnight to obtain a PDH/hPDHK2 complex solution. In the assay buffer, 0.025 U/mL PDH was mixed and incubated at 4° C. overnight to prepare a PDH solution.
The test compounds were diluted with DMSO. To measure an inhibitory action of the test compound on the PDHK activity in the PDH/hPDHK2 complex solution, PDH/hPDHK2 complex solution (20 μL), test compound (1.5 μL) and 1.06 μmol/L ATP (diluted with assay buffer) (8.5 μL) were added to a 384 well microplate and PDHK reaction was performed at room temperature for 45 min (test compound well). DMSO (1.5 μL) was added to control wells instead of test compound. In addition, DMSO (1.5 μL) was added to blank wells instead of the test compound, and PDH solution was added instead of the PDH/hPDHK2 complex solution. To measure an inhibitory action of the test compound on the PDHK activity inherent in the PDH solution, a test compound was added and the PDH solution instead of the PDH/hPDHK2 complex solution was added to a blank+test compound well.
Then, 10 μL of substrates (5 mmol/L sodium pyruvate, 5 mmol/L Coenzyme A, 12 mmol/L NAD, 5 mmol/L thiamine pyrophosphate, diluted with assay buffer) were added. The mixture was incubated at room temperature for 90 min, and the residual PDH activity was measured. […]

human PDHK1 (hPDHK1), sequence (Q15118 29-436): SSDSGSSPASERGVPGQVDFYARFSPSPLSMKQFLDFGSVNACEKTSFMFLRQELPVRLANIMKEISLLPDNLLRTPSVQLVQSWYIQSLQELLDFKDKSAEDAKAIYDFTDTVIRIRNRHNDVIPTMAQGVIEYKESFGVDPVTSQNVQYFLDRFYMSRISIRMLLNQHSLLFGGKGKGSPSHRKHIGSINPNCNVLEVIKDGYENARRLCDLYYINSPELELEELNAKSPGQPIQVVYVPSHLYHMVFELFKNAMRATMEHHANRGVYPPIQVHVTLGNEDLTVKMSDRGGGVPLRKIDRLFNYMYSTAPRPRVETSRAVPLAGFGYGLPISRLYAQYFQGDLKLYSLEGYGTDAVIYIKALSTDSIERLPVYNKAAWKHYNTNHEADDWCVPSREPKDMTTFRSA

In general, IC50 refers to the point on the concentration scale where inhibition reaches its midpoint. Take `C[C@H]1CN(C(=O)c2c(Cl)c(-c3ccc(C#N)cc3)nn2C)Cc2cnc([C@@](C)(O)C(F)(F)F)n21` [Example 40, 4-(4-chloro-1-methyl-5-((S)-5-methyl-3-((R)-1,1,1-trifluoro-2-hydroxypropan-2-yl)-5,6,7,8-tetrahydroimidazo[1,5-a]pyrazine-7-carbonyl)-1H-pyrazol-3-yl)benzonitrile]: the 50% inhibitory concentration (IC50) was determined as 5 nM at human PDHK1 (hPDHK1) and 6 nM on human PDHK2 (hPDHK2).

As for `C[C@H]1CN(C(=O)c2cc(C3CC3)on2)Cc2cnc([C@@](C)(O)C(F)(F)F)n21` [Example 21], the figures for the IC50 at human PDHK1 (hPDHK1) and at human PDHK2 (hPDHK2) were 13 nM and 12 nM, respectively.

As to `Cc1c(-c2ccc(C#N)cc2)nn(C)c1C(=O)N1Cc2cnc([C@@](C)(O)C(F)(F)F)n2[C@@H](C)C1` [Example 76], the IC50 at human PDHK1 (hPDHK1) is 6 nM; on human PDHK2 (hPDHK2) it was 9 nM.

Consider `Cc1cc(-c2ccc(F)cc2C#N)ncc1C(=O)N1Cc2cnc([C@@](C)(O)C(F)(F)F)n2[C@@H](C)C1` [Example 59], for which the concentration for half-maximal inhibition (IC50) at human PDHK1 (hPDHK1) is 4 nM; at human PDHK2 (hPDHK2) it was 3 nM.

Turning to `C[C@H]1CN(C(=O)c2cnc(-c3ccccc3)nc2)Cc2cnc([C@@](C)(O)C(F)(F)F)n21` [Example 56], the half-maximal inhibitory concentration (IC50) at human PDHK1 (hPDHK1) and on human PDHK2 (hPDHK2) was 10 nM in each case.

In the case of `C[C@H]1CN(C(=O)c2cc(-c3ccc(F)cc3)on2)Cc2cnc([C@@](C)(O)C(F)(F)F)n21` [Example 26], the IC50 was 9 nM on human PDHK1 (hPDHK1) and 14 nM on human PDHK2 (hPDHK2).

Turning to `C[C@H]1CN(C(=O)c2cc3ccccc3o2)Cc2cnc([C@@](C)(O)C(F)(F)F)n21` [Example 13], the results for the half-inhibitory concentration (IC50) on human PDHK1 (hPDHK1) and at human PDHK2 (hPDHK2) were 29 nM and 36 nM, respectively.

For the compound `C[C@H]1CN(C(=O)c2ccc(F)c(-c3ncc(F)cc3C#N)c2)Cc2cnc([C@@](C)(O)C(F)(F)F)n21` [Example 69], the concentration for half-maximal inhibition (IC50) at human PDHK1 (hPDHK1) is 5 nM; on human PDHK2 (hPDHK2), 8 nM.

Turning to `C[C@H]1CN(C(=O)c2ccnc(-c3ccc(F)cc3)c2F)Cc2cnc([C@@](C)(O)C(F)(F)F)n21` [Example 87], on human PDHK1 (hPDHK1), the IC50 was less than 3 nM and the inhibition at 0.003 µM was 66%. The IC50 on human PDHK2 (hPDHK2) is less than 3 nM. Also, on human PDHK2 (hPDHK2) (lowest concentration of the test compound in the assay (<3 nmol/L), shown when IC50 value could not be calculated), the “hPDHK2 inhibitory rate at the lowest concentration of the test compound” value is 53%.

Regarding `C[C@H]1CN(C(=O)c2ccnn2C2CC2)Cc2onc([C@@](C)(O)C(F)(F)F)c21` [Example 109], the IC50 is less than 3 nM at human PDHK1 (hPDHK1) and 5 nM at human PDHK2 (hPDHK2). Besides, the inhibition at 0.003 µM on human PDHK1 (hPDHK1) was 53%.

`C[C@H]1CN(C(=O)c2cncc(-c3ccc(F)cc3C#N)c2)Cc2cnc([C@@](C)(O)C(F)(F)F)n21` [Example 72]: the IC50 was 7 nM on human PDHK1 (hPDHK1) and 9 nM on human PDHK2 (hPDHK2).

As to `C[C@H]1CN(C(=O)[C@H]2CCN(c3ccc(C#N)cn3)C2)Cc2cnc([C@@](C)(O)C(F)(F)F)n21` [Example 92], the 50% inhibitory concentration (IC50) at human PDHK1 (hPDHK1) amounted to 27 nM; at human PDHK2 (hPDHK2), 23 nM.

For the compound `C[C@H]1CN(C(=O)c2cc(-c3ccc(C#N)cn3)nn2C)Cc2cnc([C@@](C)(O)C(F)(F)F)n21` [Example 73, 6-(1-methyl-5-((S)-5-methyl-3-((R)-1,1,1-trifluoro-2-hydroxypropan-2-yl)-5,6,7,8-tetrahydroimidazo[1,5-a]pyrazine-7-carbonyl)-1H-pyrazol-3-yl)nicotinonitrile], the IC50 turned out to be 6 nM on human PDHK1 (hPDHK1) and 7 nM at human PDHK2 (hPDHK2).

With `C[C@H]1CN(C(=O)c2cc(-c3ccc(F)cn3)nn2C)Cc2cnc([C@@](C)(O)C(F)(F)F)n21` [Example 81], the half-inhibitory concentration (IC50) came to 5 nM on human PDHK1 (hPDHK1) and 7 nM on human PDHK2 (hPDHK2).

With `Cc1cc(C#N)ccc1-c1cc(C(=O)N2Cc3cnc([C@@](C)(O)C(F)(F)F)n3[C@@H](C)C2)n(C)n1` [Example 75], the results for the IC50 at human PDHK1 (hPDHK1) and on human PDHK2 (hPDHK2) were 6 nM and 11 nM, respectively.

On to `C[C@H]1CN(C(=O)c2cccc3[nH]ncc23)Cc2onc([C@@](C)(O)C(F)(F)F)c21` [Example 102], for which the half-inhibitory concentration (IC50) on human PDHK1 (hPDHK1) and at human PDHK2 (hPDHK2) was 4 nM in each case.

Turning to `Cc1nc(-c2ccc(C#N)cc2)oc1C(=O)N1Cc2cnc([C@@](C)(O)C(F)(F)F)n2[C@@H](C)C1` [Example 46], the IC50 on human PDHK1 (hPDHK1) and at human PDHK2 (hPDHK2) was 5 nM throughout.
